The record followed here is patent publication US12157741B2, “Macrocyclic inhibitors of DYRK1A” (DANA-FARBER CANCER INSTITUTE, INC., priority 2018, dated 2024).

The target of assay [1] is T1, various enzymes (Homo sapiens, UniProt P29323).
T1 sequence (P29323 19-1055): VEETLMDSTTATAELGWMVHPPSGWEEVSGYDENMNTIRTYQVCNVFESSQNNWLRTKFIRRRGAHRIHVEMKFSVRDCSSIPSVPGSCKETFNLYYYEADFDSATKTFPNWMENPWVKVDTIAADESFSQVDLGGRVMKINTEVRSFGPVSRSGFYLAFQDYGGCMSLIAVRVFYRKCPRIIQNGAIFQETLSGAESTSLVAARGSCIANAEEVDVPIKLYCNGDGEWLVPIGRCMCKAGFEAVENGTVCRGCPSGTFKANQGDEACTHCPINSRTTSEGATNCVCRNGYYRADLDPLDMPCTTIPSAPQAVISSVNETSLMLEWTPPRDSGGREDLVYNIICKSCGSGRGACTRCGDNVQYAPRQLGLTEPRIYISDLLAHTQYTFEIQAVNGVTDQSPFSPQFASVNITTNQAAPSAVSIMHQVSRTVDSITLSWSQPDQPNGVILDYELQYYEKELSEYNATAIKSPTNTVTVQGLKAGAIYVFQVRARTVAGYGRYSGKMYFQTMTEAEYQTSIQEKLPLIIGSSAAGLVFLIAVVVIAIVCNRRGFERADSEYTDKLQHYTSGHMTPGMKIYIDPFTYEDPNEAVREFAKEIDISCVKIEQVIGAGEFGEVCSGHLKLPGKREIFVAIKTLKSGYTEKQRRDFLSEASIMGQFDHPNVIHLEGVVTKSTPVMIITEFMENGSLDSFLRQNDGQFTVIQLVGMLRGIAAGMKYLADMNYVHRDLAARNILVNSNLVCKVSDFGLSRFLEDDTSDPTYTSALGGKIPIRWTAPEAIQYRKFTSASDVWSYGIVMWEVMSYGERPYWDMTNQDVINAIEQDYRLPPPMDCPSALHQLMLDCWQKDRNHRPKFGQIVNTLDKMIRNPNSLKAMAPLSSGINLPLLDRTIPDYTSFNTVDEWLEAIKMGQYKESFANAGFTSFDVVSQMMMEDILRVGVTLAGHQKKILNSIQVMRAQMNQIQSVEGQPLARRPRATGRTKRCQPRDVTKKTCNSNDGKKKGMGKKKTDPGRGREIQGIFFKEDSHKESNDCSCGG
The settings on record: EPHB2; 1 uM.
Description: (§1) Ambit profiling from Eurofins (formerly Discoverx) was conducted in accordance with the manufacturer's instructions.

The target in assay [2] is various enzymes (Homo sapiens, UniProt P45983). The settings on record: JNK1; 1 uM.
Chain of various enzymes (Homo sapiens, UniProt P45983) (P45983 whole entry): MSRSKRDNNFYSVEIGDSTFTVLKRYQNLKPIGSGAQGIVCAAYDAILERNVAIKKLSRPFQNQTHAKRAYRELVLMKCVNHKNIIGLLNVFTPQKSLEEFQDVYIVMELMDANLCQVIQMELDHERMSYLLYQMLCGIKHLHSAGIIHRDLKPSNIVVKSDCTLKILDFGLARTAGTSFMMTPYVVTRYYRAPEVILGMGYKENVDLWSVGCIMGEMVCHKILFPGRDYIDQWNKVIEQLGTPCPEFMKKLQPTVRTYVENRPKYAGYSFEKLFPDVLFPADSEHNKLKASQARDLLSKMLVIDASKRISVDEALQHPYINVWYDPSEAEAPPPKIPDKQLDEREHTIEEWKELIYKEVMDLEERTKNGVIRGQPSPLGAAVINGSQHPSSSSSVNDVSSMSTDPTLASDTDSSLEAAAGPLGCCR
Description: as §1
The target in assay [3] is various enzymes (Homo sapiens, UniProt Q9UK32). The settings on record: 1 uM.
Chain of various enzymes (Homo sapiens, UniProt Q9UK32) (Q9UK32 whole entry): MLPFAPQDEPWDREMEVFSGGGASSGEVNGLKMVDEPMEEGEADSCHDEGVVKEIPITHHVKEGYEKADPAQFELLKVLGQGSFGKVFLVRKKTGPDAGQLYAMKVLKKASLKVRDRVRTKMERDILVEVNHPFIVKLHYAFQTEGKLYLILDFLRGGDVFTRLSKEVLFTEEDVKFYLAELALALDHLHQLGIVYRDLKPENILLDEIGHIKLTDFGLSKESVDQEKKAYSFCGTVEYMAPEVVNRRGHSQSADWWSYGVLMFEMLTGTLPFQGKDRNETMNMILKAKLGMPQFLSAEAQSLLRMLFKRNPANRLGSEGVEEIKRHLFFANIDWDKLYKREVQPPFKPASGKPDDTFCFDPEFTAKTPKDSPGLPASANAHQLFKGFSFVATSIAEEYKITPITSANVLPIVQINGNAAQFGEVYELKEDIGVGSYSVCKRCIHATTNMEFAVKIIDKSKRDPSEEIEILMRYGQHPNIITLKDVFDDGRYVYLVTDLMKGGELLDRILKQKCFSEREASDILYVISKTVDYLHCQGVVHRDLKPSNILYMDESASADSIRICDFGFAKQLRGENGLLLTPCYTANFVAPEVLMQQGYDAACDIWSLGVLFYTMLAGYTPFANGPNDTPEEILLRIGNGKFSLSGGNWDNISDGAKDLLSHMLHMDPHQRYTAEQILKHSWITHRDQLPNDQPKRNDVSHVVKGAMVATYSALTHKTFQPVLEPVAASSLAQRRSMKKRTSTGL
Description: as §1
In assay [4] the target is various enzymes (Homo sapiens, UniProt P43405). The settings on record: SYK; 1 uM.
Description: as §1
The target in assay [5] is various enzymes (Homo sapiens, UniProt P00533, T790M).
Description: as §1
Assay [6] concerns the target various enzymes (Homo sapiens, UniProt Q9NYY3). The settings on record: PLK2; 1 uM.
Description: as §1
In assay [7] the target is T2, various enzymes (Homo sapiens, UniProt Q9NRM7).
T2 sequence (Q9NRM7 1-1088): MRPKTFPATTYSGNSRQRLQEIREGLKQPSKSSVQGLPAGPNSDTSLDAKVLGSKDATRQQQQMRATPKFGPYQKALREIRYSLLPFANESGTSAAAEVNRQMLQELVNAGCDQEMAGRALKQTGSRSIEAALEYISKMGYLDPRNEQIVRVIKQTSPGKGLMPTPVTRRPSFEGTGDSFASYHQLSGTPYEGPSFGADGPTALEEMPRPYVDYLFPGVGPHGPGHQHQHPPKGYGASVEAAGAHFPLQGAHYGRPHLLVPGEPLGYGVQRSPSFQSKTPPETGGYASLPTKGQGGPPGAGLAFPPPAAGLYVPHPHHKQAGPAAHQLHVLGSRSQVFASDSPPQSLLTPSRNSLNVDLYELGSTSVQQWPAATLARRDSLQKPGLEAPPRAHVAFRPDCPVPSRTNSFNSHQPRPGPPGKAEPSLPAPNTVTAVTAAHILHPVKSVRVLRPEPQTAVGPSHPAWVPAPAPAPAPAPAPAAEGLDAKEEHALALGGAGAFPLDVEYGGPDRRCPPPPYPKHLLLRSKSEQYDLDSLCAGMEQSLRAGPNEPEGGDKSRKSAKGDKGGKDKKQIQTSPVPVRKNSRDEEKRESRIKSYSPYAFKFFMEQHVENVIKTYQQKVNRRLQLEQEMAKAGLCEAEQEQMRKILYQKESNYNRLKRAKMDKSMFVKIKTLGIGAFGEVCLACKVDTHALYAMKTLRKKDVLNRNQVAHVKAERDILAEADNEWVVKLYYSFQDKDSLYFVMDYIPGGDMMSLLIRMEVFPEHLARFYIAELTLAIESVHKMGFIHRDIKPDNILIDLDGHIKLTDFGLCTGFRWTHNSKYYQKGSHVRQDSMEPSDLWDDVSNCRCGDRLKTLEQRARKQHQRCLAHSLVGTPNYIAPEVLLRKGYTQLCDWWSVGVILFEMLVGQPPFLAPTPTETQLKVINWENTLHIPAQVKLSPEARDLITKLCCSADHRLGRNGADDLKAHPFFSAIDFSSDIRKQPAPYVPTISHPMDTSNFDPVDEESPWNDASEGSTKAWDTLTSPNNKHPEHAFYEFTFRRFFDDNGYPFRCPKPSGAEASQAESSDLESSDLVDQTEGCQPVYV
The settings on record: LATS2; 1 uM.
Description: as §1

Where two headings read alike, the source gives them in different places.

Chain of various enzymes (Homo sapiens, UniProt Q9NYY3) (Q9NYY3 whole entry): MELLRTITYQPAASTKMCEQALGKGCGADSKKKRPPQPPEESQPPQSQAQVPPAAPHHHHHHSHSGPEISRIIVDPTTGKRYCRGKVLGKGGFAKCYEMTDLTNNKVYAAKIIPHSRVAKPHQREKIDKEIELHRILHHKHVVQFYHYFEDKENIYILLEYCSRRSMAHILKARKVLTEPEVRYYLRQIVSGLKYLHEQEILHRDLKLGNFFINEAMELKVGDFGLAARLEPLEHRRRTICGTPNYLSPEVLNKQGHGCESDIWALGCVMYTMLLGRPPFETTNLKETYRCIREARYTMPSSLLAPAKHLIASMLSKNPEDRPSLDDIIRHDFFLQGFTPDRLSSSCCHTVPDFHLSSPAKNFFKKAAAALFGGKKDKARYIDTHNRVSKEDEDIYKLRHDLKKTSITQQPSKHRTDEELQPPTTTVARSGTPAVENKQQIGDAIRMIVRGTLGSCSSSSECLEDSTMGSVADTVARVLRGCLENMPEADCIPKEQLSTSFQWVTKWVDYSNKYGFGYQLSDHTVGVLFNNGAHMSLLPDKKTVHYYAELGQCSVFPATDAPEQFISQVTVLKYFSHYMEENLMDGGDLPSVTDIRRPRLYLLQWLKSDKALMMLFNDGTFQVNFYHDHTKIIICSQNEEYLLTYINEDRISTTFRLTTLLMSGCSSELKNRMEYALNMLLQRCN

On to `CN1Cc2nn(C)cc2-c2cnc3[nH]cc(c3c2)-c2cnn(c2)CCCC1=O` [Compound 41, (Z)-31,5-dimethyl-11H,21H,31H-5-aza-2(3,5)-pyrrolo[2,3-b]pyridina-1(4,1),3(4,3)-dipyrazolacyclononaphan-6-one], for which the Ambit profiling in assay [1] came to 80; in assay [2], 0.1; in assay [3] (RSK4(Kin.Dom.1-N-terminal)), 5.6; in assay [3] (RSK4(Kin.Dom.2-C-terminal)) it was 63; in assay [4], 70; in assay [5] (EGFR(T790M), 1 uM) it was 41. For the same compound, the Ambit profiling amounted to 90 in assay [6] and 63 in assay [7].
For the compound `CN1Cc2nn(C)c(C#N)c2-c2cnc3[nH]cc(c3c2)-c2cn(nc2C(F)(F)F)CCCC1=O` [Compound 48, (Z)-31,5-dimethyl-6-oxo-13-(trifluoromethyl)-11H,21H,31H-5-aza-2(3,5)-pyrrolo[2,3-b]pyridina-1(4,1),3(4,3)-dipyrazolacyclononaphane-35-carbonitrile], the Ambit profiling was 99 in assay [1]; 20 in assay [2]; 7.5 in assay [3] (RSK4(Kin.Dom.1-N-terminal)); 69 in assay [3] (RSK4(Kin.Dom.2-C-terminal)); 68 in assay [4]; 80 in assay [5]. Also, the Ambit profiling in assay [6] and in assay [7] was 100 in each case.
